Reference: patent US20140097078A1, “DISTILLATION DEVICE AND METHOD” (GE HEALTHCARE LIMITED, priority 2011, published 2014)
Read-outs that look alike come from different tables or passages of the source.

Assays:
[1] = Radiolysis / stability of [18F]FET-βAG-TOCA: percentage of parent compound over time; assay type: physicochemical; details: for Percentage of parent compound at time: T = 0 / Percentage of parent compound at time: T = 120 m / Percentage of parent compound at time: T = 240 m: ~10 ml in 3-6% EtOH/PBS
Method: The use of higher levels of fluorine-18 (0.5-1 Curie) was also investigated. […] Although radiolysis occurred during isolation, once the product had been fully formulated (6% EtOH/PBS (10 mL)) it appeared to be stable up to 6 h. During this experiment, the EOS yield after aseptic filtration was 13%. The starting fluorine-18 was then reduced to see enough material could be isolated for a clinical dose, whilst at the same time reducing radiolysis.
Additional experiments attempted to add ascorbic acid to the existing HPLC eluent (0.5% w/v), add a sodium ascorbate solution to the HPLC fraction collection vial (5 mg/mL (5 mL)) and elute the tC18 cartridge with a sodium ascorbate/EtOH solution (5 mg/mL/1% EtOH). Unfortunately, due to addition of ascorbic acid to the HPLC eluent, the purification became inefficient, showing very little elution of the stable reagents. […] The isolated yield was also unaffected and gave EOS of 14%. To avoid this problem, ethanol was investigated as a replacement for the ascorbic acid. After some optimisation, a suitable solvent system was found (25% MeCN (0.1% HCl), 75% H2O (0.1% HCl)+0.8% w/v EtOH) which could be used to purify the material at the same time as reducing radiolysis (97% parent T=0 min (n=1)) (Entry 5, Table 2).

[2] = Entry 1, starting activity 1 Curie
[3] = Entry 2, starting activity 600 mCi
[4] = Entry 3, starting activity 500 mCi
[5] = Entry 4, starting activity 500 mCi
[6] = Entry 5, starting activity 500 mCi, EtOH-containing HPLC eluent

[^18F]FET-βAG-TOCA
time for which stable once fully formulated ([1]; 1 Curie run, formulated in 6% EtOH/PBS (10 mL)): ≥ 6 h | Percentage of parent compound at time: T = 0 [1, 2]: 60% | Percentage of parent compound at time: T = 120 m [1, 2]: 60% | Percentage of parent compound at time: T = 240 m [1, 2]: 60% | Percentage of parent compound at time: T = 0 [1, 3]: 91% | Percentage of parent compound at time: T = 120 m [1, 3]: 91% | Percentage of parent compound at time: T = 240 m [1, 3]: 91% | Percentage of parent compound at time: T = 0 [1, 4]: 96% | Percentage of parent compound at time: T = 120 m [1, 4]: 96% | Percentage of parent compound at time: T = 240 m [1, 4]: 96% | Percentage of parent compound at time: T = 0 [1, 5]: 97% | Percentage of parent compound at time: T = 120 m [1, 5]: 97% | Percentage of parent compound at time: T = 240 m [1, 5]: 97% | Percentage of parent compound at time: T = 0 [1, 6]: 97% | Percentage of parent compound at time: T = 240 m [1, 6]: 97% | parent at T=0 min ([1]; HPLC solvent 25% MeCN (0.1% HCl), 75% H2O (0.1% HCl)+0.8% w/v EtOH, n=1, Entry 5, Table 2): 97% | parent at T=0 min ([1]; ascorbic acid in HPLC eluent (0.5% w/v), sodium ascorbate in collection vial and tC18 eluent): 97% | intact parent ([1]; starting with 0.5 Curies of fluorine-18): 91% | parent at T=0 ([1]; starting with 1 Curie of fluorine-18, radiolysis during HPLC purification and tC18 formulation): 62%

βAG-TOCA
time for which stable (in the presence of BPDS): ≤ 20 min | time for which stable (in the presence of CuSO4): > 240 min | time for which stable (in the presence of Na-ascorbate): ≤ 20 min
